Experimental data reported in patent publication US5321130A, “Unsymmetrical cyanine dyes with a cationic side chain” (priority 1992, dated 1994).

Experiments:
[1] = system: DNA of mouse fibroblast 3T3 cells; assay: Analysis of cellular DNA content (lysed 3T3 cells, fluorescence); type: cell-based
Protocol: Mouse fibroblast 3T3 cells aliquoted into microtiter plates are subjected to a freeze/thaw protocol to lyse cells and release DNA into solution. Compound 3 in TNE buffer is added to each well and the plates are scanned in a Cytofluor 2350 microtiter plate reader (Millipore Corp.) with excitation at 485 nm and emission detected at 530 nm. […] Treatment of half the wells with 20 μg/ml DNAse 1 for one hour at 37° C. in DNAse 1 buffer (10 mM MnCl2, 50 mM TRIS, pH 7.7) eliminates more than 95% of the fluorescence (filled circles).
The method of Rago et al. [Analytical Biochemistry 191, 31 (1990)] is adapted for use with the nucleotide-specific stain Compound 3. 3T3 cells (a mouse fibroblast cell line) are aliquoted into 96-well microtiter plates and allowed to adhere over a period of 4 hours. Cell numbers used are between 100 and 100,000 in 100 μl of Dulbecco's Modified Eagle Medium (DMEM). […]
For fluorescence analysis, 100 μl of distilled water is added to each well and the plates incubated at 37° C. for one hour, frozen at -80° C. then thawed to room temperature. […] 100 μl of 10 μM Compound 3 in TNE buffer (2 M NaCl, 10 mM TRIS, 1 mM EDTA pH 7.4) is added to each well and the plates scanned in a Cytofluor 2350 microtiter plate reader (Millipore Corp.) with excitation at 485 nm and emission detected at 530 nm. […]

calf thymus DNA [2] = assay: Absorption spectra of dye bound to calf thymus DNA; type: binding; conditions: pH 7.4 + DNA, ratio of 50 DNA base pairs per dye molecule or greater
Protocol: Absorption spectra of solutions of Compounds 1-8 (4 μM) in pH 7.4 buffer (10 mM Tris, 1 mM EDTA and 50 mM NaCl) are recorded on a Perkin-Elmer Lambda 6 spectrophotometer after the addition of sufficient calf thymus DNA (Sigma Chemical Co. D-1501) to yield a ratio of 50 DNA base pairs per dye molecule or greater. The spectra are normalized to a maximum absorbance of 1.0 by numerical rescaling.
The absorption spectrum of Compound 4 in buffer, prepared as for FIG. 1, is recorded on a Perkin-Elmer Lambda 6 spectrophotometer before and after addition of calf thymus DNA. The spectra are not rescaled, illustrating the changes in extinction coefficient and absorption wavelength range accompanying binding to DNA.
(§1) The strength of absorption and/or fluorescence is indicated by the extinction coefficient. The maximum extinction coefficient (εmax) for the unbound dyes is calculated from the longest wavelength absorption maximum according to the Beer-Lambert law based on the known concentration of the solutions. The extinction coefficient for the dye bound to DNA is calculated from the change in maximum absorbance compared to the dye in free aqueous solution. Typically the extinction coefficient for both bound and unbound dyes is between about 50,000 M^-1 cm^-1 and about 150,000 M^-1 cm^-1.
(§2) Solutions of Compounds 1-8 are prepared by accurately weighing 5 mg quantities and dissolving in DMSO (dimethylsulfoxide) to give a 1 mg/ml stock solution. These solutions are diluted 200 fold into either methanol or a pH 7.4 buffer solution comprising 10 mM Tris, 1 mM EDTA and 50 mM NaCl. Each absorption spectrum is recorded on an IBM Instruments 9420 spectrophotometer. The absorption maximum for each dye without the presence of nucleic acid polymers (λA) is tabulated (Table 2). To the solutions of Compounds 1-8 in pH 7.4 buffer is added sufficient calf thymus DNA (Sigma Chemical Co. D-1501) stock solution calculated to yield a ratio of 50 DNA base pairs per dye molecule or greater. The absorption maximum for each dye bound to DNA is again tabulated (Table 2). […] Where the spectra are not rescaled, the changes in extinction coefficient and absorption wavelength range accompanying binding to DNA are clearly illustrated (FIG. 2).

calf thymus DNA [3] = assay: Fluorescence emission spectra and enhancement on binding to calf thymus DNA; conditions: 0.4 μM dye; for λF (fluorescence maximum), bound to DNA: pH 7.4 + DNA; for Enhancement (QY + DNA)/(QY - DNA): pH 7.4, DNA:fluorophore ratio of 50 bp:1 or greater
Protocol: Fluorescence emission spectra of solutions (0.4 μM) of Compounds 1-8 in pH 7.4 buffer (10 mM Tris, 1 mM EDTA and 50 mM NaCl), after sufficient calf thymus DNA (Sigma Chemical Co. D-1501) is added to yield a ratio of 50 DNA base pairs per dye molecule or greater, are recorded on an Alphascan spectrofluorometer (PTI Inc.) with excitation at approximately (λA -25 nm) where λA is the absorption maximum of the dye bound to DNA (Table 2).
Solutions of each of Compounds 1-8 (0.4 μM) in pH 7.4 buffer (10 mM Tris, 1 mM EDTA and 50 mM NaCl) are prepared as above. Fluorescence emission spectra are recorded on an Alphascan spectrofluorometer (PTI Inc.) with excitation at approximately (λA -25 nm) where λA is the absorption maximum of the dye bound to DNA. After sufficient calf thymus DNA (Sigma Chemical Co. D-1501) is added to yield a ratio of 50 DNA base pairs per dye molecule or greater, fluorescence emission spectra are again recorded (Table 2). The spectra are integrated and enhancement ratio (Table 2) is calculated as follows: [formula] in which the ratio (A-)/(A+) is the ratio of the absorbances for the free and bound dye respectively at the excitation wavelength.

[4] = Absorption spectra of free dye in methanol or pH 7.4 buffer; type: physicochemical; conditions: no DNA
Protocol: as §1, §2

DNA or RNA = assay: Optical properties upon binding with DNA or RNA (general statements); conditions: binding to nucleic acid polymers
Description: The enhanced fluorescence of the dyes in the bound versus unbound state is exemplified in Table 2. In particular, the absorption curve typically shifts to a longer wavelength. Typically, the absorption curve shift is between about 5 and about 20 nm. […] When combined with nucleic acid polymers, the novel dyes of this invention generally have a Stokes shift of between about 15 to about 30 nm. Table 2 includes the excitation and emission maxima (λA and λF respectively) for Compounds 1-8.
The fluorescence of the novel dyes bound to DNA or RNA is enhanced at least about 9 fold. Typically fluorescence is enhanced at least about 100 fold, sometimes as much as 1000 fold or more, depending on the amount and purity of the dye present in the sample (Table 2). This significant increase in fluorescence intensity reduces or eliminates the problem of background fluorescence due to unbound dye, thus avoiding the necessity to separate the unbound dye before measuring the fluorescence. Even where the dyes are intrinsically fairly fluorescent, however, such that the enhancement in fluorescence quantum yield which results from binding to nucleic acid polymers is less than 10 fold (e.g. Compound 5), the significant shift in absorption maxima that results from such binding (see Table 2, FIG. 2) can be used to quantitatively or qualitatively measure the presence of nucleic acid polymers.

calf thymus DNA [5] = assay: Dye/nucleic acid affinity: partition coefficient Kp by fluorescence titration with DNA; type: binding
Protocol: The fluorescence intensity (F) determined in a fluorescence plate reader (CytoFluor from Millipore Corporation), is measured versus DNA concentration expressed in terms of base pairs concentration (B). […] In all the titrations, [Dye]/[Base Pair] is always […] than 3 to fulfill the requirements of the partition model.
The nucleic acid/water partition coefficient (Kp) representing the relative affinity of the dye for DNA is calculated from the fluorescence data according to the following formula:
1/F=[5.6·10^7 /(Kp Fo)](1/B)+1/Fo
where 5.6·10^7 (μM) is water molar concentration; B is the concentration of base pairs; and Fo is the fluorescence enhancement at saturation. Table 3 gives the Kp values of representative dyes via the partition model in the presence of 10% ethanol.

In the case of `C[n+]1c(C=C2C=CN(CCC[N+](C)(C)C)c3ccccc32)oc2ccccc21` [Compound 3], the “fluorescence eliminated by DNAse 1 treatment” value ([1]; 20 μg/ml DNAse 1, one hour, 37° C.) is reported as “more than 95%”, the “fluorescence versus cell number” value ([1]; Ex 485 nm, Em 530 nm, TNE buffer) is reported as “linear increase of fluorescence with cell number” and the “εmax (extinction coefficient), bound to DNA” value (“εmax … bound to DNA” for short) (calf thymus DNA [2]) is reported as 52,013 M^-1 cm^-1. For the same compound, the “λA (absorption maximum), bound to DNA” value (calf thymus DNA [2]) was 491 nm, the “λF (fluorescence maximum), bound to DNA” value (calf thymus DNA [3]) was 509 nm and the “Enhancement (QY + DNA)/(QY - DNA)” value (calf thymus DNA [3]) was 925 x. The “εmax (extinction coefficient)” value ([4]; methanol) was 72,600 M^-1 cm^-1, the “λA (absorption maximum)” value ([4]; methanol) was 482 nm and the “εmax (extinction coefficient)” value ([4]; pH 7.4 buffer) was 66,000 M^-1 cm^-1. For the same compound, the “λA (absorption maximum)” value ([4]; pH 7.4 buffer) was 481 nm.
In the case of `C[n+]1c(C=CC=CC=C2C=CN(CCC[N+](C)(C)C)C=C2)oc2ccccc21` [Compound 5], the “enhancement in fluorescence quantum yield on binding” value (DNA or RNA) is reported as “less than 10 fold”, the “λA (absorption maximum), bound to DNA” value (calf thymus DNA [2]) is reported as 532 nm and the “λF (fluorescence maximum), bound to DNA” value (calf thymus DNA [3]) is reported as 562 nm. For the same compound, the “Enhancement (QY + DNA)/(QY - DNA)” value (calf thymus DNA [3]) was 9 x, the “λA (absorption maximum)” value ([4]; methanol) was 525 nm and the “λA (absorption maximum)” value ([4]; pH 7.4 buffer) was 523 nm.
In the case of `C[n+]1c(C=C2C=CN(CCC[N+](C)(C)C)C=C2)oc2ccccc21` [Compound 1], the “εmax … bound to DNA” value (calf thymus DNA [2]) is reported as 50,100 M^-1 cm^-1, the “λA (absorption maximum), bound to DNA” value (calf thymus DNA [2]) is reported as 435 nm and the “λF (fluorescence maximum), bound to DNA” value (calf thymus DNA [3]) is reported as 455 nm. The “Enhancement (QY + DNA)/(QY - DNA)” value (calf thymus DNA [3]) was 456 x, the “εmax (extinction coefficient)” value ([4]; methanol) was 77,500 M^-1 cm^-1 and the “λA (absorption maximum)” value ([4]; methanol) was 423 nm. The “εmax (extinction coefficient)” value ([4]; pH 7.4 buffer) was 75,500 M^-1 cm^-1 and the “λA (absorption maximum)” value ([4]; pH 7.4 buffer) was 423 nm.
In the case of `C[n+]1c(C=CC=C2C=CN(CCC[N+](C)(C)C)c3ccccc32)oc2ccccc21` [Compound 7], the “εmax … bound to DNA” value (calf thymus DNA [2]) is reported as 100,100 M^-1 cm^-1, the “λA (absorption maximum), bound to DNA” value (calf thymus DNA [2]) is reported as 612 nm and the “λF (fluorescence maximum), bound to DNA” value (calf thymus DNA [3]) is reported as 631 nm. For the same compound, the “Enhancement (QY + DNA)/(QY - DNA)” value (calf thymus DNA [3]) was 155 x, the “εmax (extinction coefficient)” value ([4]; methanol) was 133,100 M^-1 cm^-1 and the “λA (absorption maximum)” value ([4]; methanol) was 600 nm. For the same compound, the “εmax (extinction coefficient)” value ([4]; pH 7.4 buffer) was 122,000 M^-1 cm^-1 and the “λA (absorption maximum)” value ([4]; pH 7.4 buffer) was 596 nm.
With `C[n+]1c(C=C2C=CN(CCC[N+](C)(C)C)C=C2)sc2ccccc21` [Compound 2] the “εmax … bound to DNA” value (calf thymus DNA [2]) was 58,100 M^-1 cm^-1, the “λA (absorption maximum), bound to DNA” value (calf thymus DNA [2]) was 462 nm and the “λF (fluorescence maximum), bound to DNA” value (calf thymus DNA [3]) was 481 nm. For the same compound, the “Enhancement (QY + DNA)/(QY - DNA)” value (calf thymus DNA [3]) was 892 x, the “εmax (extinction coefficient)” value ([4]; methanol) was 80,200 M^-1 cm^-1 and the “λA (absorption maximum)” value ([4]; methanol) was 452 nm. The “εmax (extinction coefficient)” value ([4]; pH 7.4 buffer) was 76,200 M^-1 cm^-1 and the “λA (absorption maximum)” value ([4]; pH 7.4 buffer) was 451 nm.
For `C[n+]1c(C=CC=CC=C2C=CN(CCC[N+](C)(C)C)C=C2)sc2ccccc21` [Compound 6], the “λA (absorption maximum), bound to DNA” value (calf thymus DNA [2]) was 575 nm, the “λF (fluorescence maximum), bound to DNA” value (calf thymus DNA [3]) was 599 nm and the “Enhancement (QY + DNA)/(QY - DNA)” value (calf thymus DNA [3]) was 29 x. For the same compound, the “λA (absorption maximum)” value ([4]; methanol) was 564 nm and the “λA (absorption maximum)” value ([4]; pH 7.4 buffer) was 560 nm.
With `C[n+]1c(C=C2C=CN(CCC[N+](C)(C)C)c3ccccc32)sc2ccccc21` [Compound 4] the “effect of ethanol on DNA affinity (Kp)” value (calf thymus DNA [5]; 10% ethanol) was “ethanol decreases the DNA affinity”, the “apparent affinity Kp, effect of dye concentration” value (calf thymus DNA [5]; binding buffer without ethanol, 0.1 vs 0.22 μM dye) was “larger with 0.1 μM dye than with 0.22 μM” and the “εmax … bound to DNA” value (calf thymus DNA [2]) was 62,800 M^-1 cm^-1. The “λA (absorption maximum), bound to DNA” value (calf thymus DNA [2]) was 515 nm, the “λF (fluorescence maximum), bound to DNA” value (calf thymus DNA [3]) was 531 nm and the “Enhancement (QY + DNA)/(QY - DNA)” value (calf thymus DNA [3]) was 1806 x. The “εmax (extinction coefficient)” value ([4]; methanol) was 73,800 M^-1 cm^-1, the “λA (absorption maximum)” value ([4]; methanol) was 507 nm and the “εmax (extinction coefficient)” value ([4]; pH 7.4 buffer) was 68,500 M^-1 cm^-1. The “λA (absorption maximum)” value ([4]; pH 7.4 buffer) was 506 nm.
With `C[n+]1c(C=CC=C2C=CN(CCC[N+](C)(C)C)c3ccccc32)sc2ccccc21` [Compound 8] the “εmax … bound to DNA” value (calf thymus DNA [2]) was 102,000 M^-1 cm^-1, the “λA (absorption maximum), bound to DNA” value (calf thymus DNA [2]) was 642 nm and the “λF (fluorescence maximum), bound to DNA” value (calf thymus DNA [3]) was 661 nm. The “Enhancement (QY + DNA)/(QY - DNA)” value (calf thymus DNA [3]) was 80 x, the “εmax (extinction coefficient)” value ([4]; methanol) was 143,200 M^-1 cm^-1 and the “λA (absorption maximum)” value ([4]; methanol) was 635 nm. For the same compound, the “εmax (extinction coefficient)” value ([4]; pH 7.4 buffer) was 98,200 M^-1 cm^-1 and the “λA (absorption maximum)” value ([4]; pH 7.4 buffer) was 631 nm.
